Measured values: patent US11634443B2, “Treprostinil prodrugs” (United Therapeutics Corporation, priority 2019, dated 2023)
Several values for one entry are separate records, joined by “and”; a condition that tells them apart may be missing. Identical values can stand only once. Entries after “also recorded” stand apart in the source; their conditions may differ. Like-named read-outs stand apart in the source and are kept apart here.

Experiments:
[1] = Stability and formation of treprostinil in human cryopreserved hepatocytes
Method: (§1) Mixed-gender human cryopreserved hepatocytes, male Sprague-Dawley rat cryopreserved hepatocytes, and male Beagle dog cryopreserved hepatocytes were purchased from XenoTech. The hepatocytes were thawed and prepared according to the vendor's instructions, pooled into Krebs Henseleit buffer (KHB, pH 7.4), and kept on ice prior to the experiments. […] The final DMSO content in the incubation mixture was ≤0.1%. […] Aliquots of the test article were withdrawn (n=1) at 0, 15, 30, 60, and 120 minutes. […] Aliquots of 7-HC were withdrawn (n=1) at 0 and 15 minutes. The reaction was immediately terminated by adding two volumes of ice-cold acetonitrile (ACN) to the test article samples and three volumes of ACN containing internal standard to the positive control samples.

[2] = Stability and formation of treprostinil in rat cryopreserved hepatocytes
Method: as §1

[3] = Stability and formation of treprostinil in dog cryopreserved hepatocytes
Method: as §1

[4] = Clinical signs and mortality after single oral gavage or IV bolus dose in rats; assay type: in vivo
Method: Animals received a single dose via oral gavage or intravenous (bolus) injection. The following parameters and end points were evaluated in this study: clinical signs and pharmacokinetic parameters. Single males in the oral 50 mg/kg prodrugs XVII and VI group were found dead on Day 2. No macroscopic findings were noted. All other animals survived to the scheduled euthanasia.
Animals were not removed from the cage during observations, unless necessary for identification or confirmation of possible findings.
The animals were removed from the cage, and a detailed clinical observation was performed on the day of animal selection. Cage side observations were performed at 1 to 2 hours post dose. Animals were weighed individually following receipt, on the day of randomization, and on each day of dosing (prior to dosing). Individual body weights are presented below.
All surviving animals were euthanized and discarded. A necropsy was conducted for animals that died on study, and specified tissues were saved.

[5] = for Dose proportionality of mean treprostinil Cmax and AUC0-24hr: PO 1 to 50 mg/kg prodrug
[6] = molecular target: T1, prostaglandin I2 (PGI2) receptor (IP) (Homo sapiens, UniProt P43119); assay: IP receptor cAMP assay (agonist mode); assay type: cell-based; settings: Table 20; agonist mode; NC = too inactive to realistically calculate; * partial agonists or odd dose-response curves
T1 construct: expressed in transfected cells; host or cells: CHO-K1
Method: (§2) Assay Buffer: • EP1 Calcium and DP1 cAMP Assays: HBSS plus 20 mM HEPES • EP2 and IP1 cAMP Assays: 1 mM IBMX in HBSS plus 20 mM HEPES
(§3) Cells were thawed from frozen cells and resuspended in assay buffer at desired concentrations. cAMP or Calcium assays were performed according to the manufacturer's protocol using Multiscreen™ TR-FRET cAMP 1.0 No Wash Assay Kit or Multiscreen™ Calcium 1.0 No Wash Kit.
(§4) Gas Cyclic AMP (cAMP) Assay: In agonist mode testing, cells were seeded in a 384-well plate at an appropriate density and then were treated with compounds and incubated at 37° C. for 20 minutes. The reaction was terminated by sequentially adding sequentially adding trFluor™ Eu-labeled cAMP and trFluor™ 650-labeled anti-cAMP antibody in lysis buffer. […] All testing wells contained 0.1% DMSO in the final concentrations.
(§5) Data in graphs are represented in Mean±SD. Dose-dependent responses were fitted with sigmoidal dose-response curves allowing variable slopes using GraphPad Prism version 6 (Graphpad Prism).
(§6) These studies used cell lines overexpressing either human IP, EP2 or DP1, or EP1 receptors, and following incubation with varying concentrations of compounds, cAMP levels were measured using Fluorescence Resonance Energy Transfer (FRET).

[7] = molecular target: T2, prostaglandin D2 (PGD2) receptor 1 (DP1) (Homo sapiens, UniProt Q13258); assay: DP1 receptor cAMP assay (agonist mode); assay type: cell-based
T2 construct: expressed in transfected cells; host or cells: HEK293T
T2 sequence (Q13258 1-359): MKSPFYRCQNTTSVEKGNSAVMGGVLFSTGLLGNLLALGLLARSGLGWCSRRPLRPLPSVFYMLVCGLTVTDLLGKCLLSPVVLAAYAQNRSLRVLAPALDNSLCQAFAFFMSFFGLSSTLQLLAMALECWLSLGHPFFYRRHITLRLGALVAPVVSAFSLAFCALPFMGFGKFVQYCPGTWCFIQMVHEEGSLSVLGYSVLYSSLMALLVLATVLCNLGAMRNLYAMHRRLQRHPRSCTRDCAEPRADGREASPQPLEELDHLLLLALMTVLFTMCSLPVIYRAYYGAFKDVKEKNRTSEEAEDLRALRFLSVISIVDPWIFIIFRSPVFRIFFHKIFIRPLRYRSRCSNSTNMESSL
Method: as §2, §3, §4, §5, §6

[8] = both, human, 15 min, 100 μM, pH 7.4
[9] = male, Sprague-Dawley, rat, 15 min, 100 μM, pH 7.4
[10] = male, Beagle, dog, 15 min, 100 μM, pH 7.4
[11] = single IV bolus 1 mg/kg, male Crl:CD(SD) rats
[12] = single oral 50 mg/kg, male Crl:CD(SD) rats
[13] = single oral 50 mg/kg, male Crl:CD(SD) rats, 50 mg/kg
[14] = treprostinil in plasma, single IV bolus 1 mg/kg prodrug, male rats
[15] = treprostinil in plasma, single PO 1 mg/kg prodrug, male rats
[16] = parent prodrug in plasma, single IV bolus 1 mg/kg, male rats
[17] = parent prodrug in plasma, single PO 1, 10 and 50 mg/kg (all PO groups), male rats
[18] = parent prodrug in plasma, single PO or IV bolus, male rats
[19] = treprostinil in plasma, male rats
[20] = treprostinil in plasma, single IV bolus 1 mg/kg prodrug, individual animals, male rats
[21] = treprostinil in plasma, single PO 10 mg/kg prodrug, male rats

T1 sequence (P43119 whole entry): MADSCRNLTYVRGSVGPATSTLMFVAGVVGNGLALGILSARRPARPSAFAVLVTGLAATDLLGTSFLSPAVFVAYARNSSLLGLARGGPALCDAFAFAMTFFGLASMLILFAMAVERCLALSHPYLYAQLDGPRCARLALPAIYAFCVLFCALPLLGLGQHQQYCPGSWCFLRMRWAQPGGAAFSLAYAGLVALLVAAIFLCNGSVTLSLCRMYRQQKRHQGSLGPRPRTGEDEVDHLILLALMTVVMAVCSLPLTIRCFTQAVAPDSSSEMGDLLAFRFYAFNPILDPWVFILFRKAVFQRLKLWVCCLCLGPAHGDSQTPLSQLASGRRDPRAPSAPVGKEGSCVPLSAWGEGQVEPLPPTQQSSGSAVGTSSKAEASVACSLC

## O=c1ccc2ccc(O)cc2o1 [7-hydroxycoumarin, reference compound]
[1]; [8]
  Formation Rate of 7-HC-G (glucuronide): 97.7 pmol/min/10^6 cells
  Formation Rate of 7-HC-S (sulfate): 10.8 pmol/min/10^6 cells
[2]; [9]
  Formation Rate of 7-HC-G (glucuronide): 91.4 pmol/min/10^6 cells
  Formation Rate of 7-HC-S (sulfate): 24.7 pmol/min/10^6 cells
[3]; [10]
  Formation Rate of 7-HC-G (glucuronide): 114 pmol/min/10^6 cells
  Formation Rate of 7-HC-S (sulfate): 35.9 pmol/min/10^6 cells

## CCCCC[C@@H](CC[C@@H]1[C@H]2Cc3cccc(OCC(=O)O)c3C[C@H]2C[C@H]1O)OC(=O)OC [Prodrug IV]
[4]; rat, in vivo, iv, 1 mg/kg
  Test article-related (adverse) clinical observations: adverse clinical observations
[4]; rat, in vivo, po, 50 mg/kg
  Test article-related (adverse) clinical observations: adverse clinical observations
[5]; parent prodrug, PO 10 to 50 mg/kg, male rats
  Dose proportionality of mean prodrug Cmax: approximately dose proportional manner
[5]; rat, in vivo
  PO bioavailability (% F) of prodrug, based on mean AUCall/Dose: 1.04%
[5]; rat, in vivo, iv, 1 mg/kg
  Individual AUCINF of prodrug: 41.5 to 144 ng·h/mL
  Individual C0 of prodrug: 65.6 to 759 ng/mL
  Individual Cl of prodrug: 115.7 to 401.67 mL/min/kg
  Individual T1/2 of prodrug: 5.46 to 16.6 min
  Individual Vz of prodrug: 2.69 to 3.61 L/kg
  Mean AUC0-12hr of prodrug: 94.4 ng·h/mL
  Mean AUCINF of prodrug: 98.7 ng·h/mL
  Mean C0 of prodrug: 324 ng/mL
  Mean Cl of prodrug: 223.33 mL/min/kg
  Mean T1/2 of prodrug: 0.212 h
  Mean Vz of prodrug: 3.15 L/kg
  Prodrug quantifiable up to (time postdose): 1 or 2 hours
[5]; rat, in vivo, po, 10 mg/kg
  Prodrug quantifiable up to (time postdose): 1 h
[5]; rat, in vivo, po, 50 mg/kg
  AUCINF of prodrug (single animal): 65.4 ng·h/mL
  Cl/F of prodrug (single animal): 12733.3 mL/min/kg
  Individual AUC0-24hr of prodrug: 49.2 ng·h/mL
  Prodrug quantifiable up to (time postdose): 1, 2, 8, or 12 hours
  T1/2 of prodrug (single animal): 4.27 h
  Vz/F of prodrug (single animal): 4710 L/kg

## CCCCC[C@H](O)CC[C@@H]1[C@H]2Cc3cccc(OCC(=O)O)c3C[C@H]2C[C@H]1OC [Prodrug LXIII, treprostinil cyclopentyl methyl ether]
[6]
  EC50 Fold Different from Treprostinil, IP Receptor: 208x
[7]; Table 20, agonist mode, NC = too inactive to realistically calculate, * partial agonists or odd dose-response curves
  EC50 Fold Different from Treprostinil, DP1 Receptor: 217x*

## CCCCC[C@@H](CC[C@@H]1[C@H]2Cc3cccc(OCC(=O)O)c3C[C@H]2C[C@H]1O)OP(=O)(O)O [Prodrug VI, treprostinil side chain phosphate]
[4]; [11]
  Test article-related (adverse) clinical observations: adverse clinical observations
[4]; [12]
  Test article-related (adverse) clinical observations: adverse clinical observations
[4]; [13]
  Mortality: found dead; also recorded: lethality
[1]
  Treprostinil Concentration, 0 min: 0 µM
  Treprostinil Concentration, 15 min: 0.223 µM
  Treprostinil Concentration, 30 min: 0.365 µM
  Treprostinil Concentration, 60 min: 0.466 µM
  Treprostinil Concentration, 120 min: 0.540 µM
[2]
  Treprostinil Concentration, 0 min: 0.128 µM
  Treprostinil Concentration, 15 min: 0.693 µM
  Treprostinil Concentration, 30 min: 0.635 µM
  Treprostinil Concentration, 60 min: 0.564 µM
  Treprostinil Concentration, 120 min: 0.53 µM
[3]
  Treprostinil Concentration, 0 min: 0.0124 µM
  Treprostinil Concentration, 15 min: 0.581 µM
  Treprostinil Concentration, 30 min: 0.609 µM
  Treprostinil Concentration, 60 min: 0.533 µM
  Treprostinil Concentration, 120 min: 0.548 µM
[7]; Table 24, relative to treprostinil EC50 values, * partial agonists or ambiguous dose-response curves, image character = too high to realistically calculate
  Activity, DP1 Relative to Tre: 2x
[5]; parent prodrug, single PO 50 mg/kg, single animal, male rats
  T1/2 of prodrug (single animal): 1.76 h
[5]; rat, in vivo, iv, 1 mg/kg
  Prodrug plasma concentrations: BLQ
  Prodrug plasma concentrations (BQL): < 1.00 ng/mL
[5]; rat, in vivo, po, 1 mg/kg
  Prodrug plasma concentrations: BLQ
[5]; rat, in vivo, po, 10 mg/kg
  Prodrug plasma concentrations: BLQ
[5]; rat, in vivo, po, 50 mg/kg
  AUCINF of prodrug (single animal): 28.2 ng·h/mL
  Mean AUC0-24hr of prodrug: 242 ng·h/mL
  Prodrug quantifiable up to (time postdose): 2, 4, 8, or 24 hours
[5]; [14]
  Mean T1/2 of treprostinil: 1.90 h
[5]; [15]
  Mean Cl/F of treprostinil: 448.33 mL/min/kg
  Mean T1/2 of treprostinil: 14.0 h

## CCCCC[C@@H](CC[C@@H]1[C@H]2Cc3cccc(OCC(=O)O)c3C[C@H]2C[C@H]1O)OC(=O)OCC [Prodrug XVI, treprostinil side chain ethyl carbonate]
[4]; [11]
  Test article-related (adverse) clinical observations: adverse clinical observations
[4]; [12]
  Mortality: found dead
  Test article-related (adverse) clinical observations: adverse clinical observations
[5]; [16]
  Prodrug plasma concentrations: BLQ
[5]; [17]
  Prodrug plasma concentrations: BLQ
[5]; [18]
  Prodrug plasma concentrations (BQL): < 1.00 ng/mL
[5]; [19]
  Dose proportionality of mean treprostinil Cmax and AUC0-24hr: less than dose proportional manner
[5]; [20]
  Individual AUCINF of treprostinil: 183 ng·h/mL
  Individual Cl of treprostinil: 91.17 mL/min/kg
  Individual Vz of treprostinil: 5.7 L/kg
[5]; treprostinil in plasma, single IV bolus 1 mg/kg prodrug, individual animals, male rats, 1 mg/kg
  Individual T1/2 of treprostinil: 0.722 h and 1.10 h
[5]; [14]
  Mean AUC0-12hr of treprostinil: 192 ng·h/mL
  Mean C0 of treprostinil: 549 ng/mL
  Mean Cmax of treprostinil: 263 ng/mL
  Mean T1/2 of treprostinil: 0.912 h
  Treprostinil quantifiable up to (time postdose): 2 h
[5]; treprostinil in plasma, single IV bolus 1 mg/kg prodrug, male rats, 1 mg/kg
  Individual AUC0-12hr of treprostinil: 171 ng·h/mL and 214 ng·h/mL
[5]; [21]
  Treprostinil quantifiable up to (time postdose): 24 h
[5]; treprostinil in plasma, single PO 50 mg/kg prodrug, male rats
  Treprostinil quantifiable up to (time postdose): 24 h
[5]; PO 1 mg/kg prodrug vs IV bolus 1 mg/kg prodrug, male rats, 1 mg/kg
  PO bioavailability (% F) of treprostinil, based on mean AUCall/Dose: 5.94% and 7.74%
[5]; PO 10 mg/kg prodrug vs IV bolus 1 mg/kg prodrug, male rats
  PO bioavailability (% F) of treprostinil, based on mean AUCall/Dose: 6.35% and 3.17%
[5]; PO 50 mg/kg prodrug vs IV bolus 1 mg/kg prodrug, male rats
  PO bioavailability (% F) of treprostinil, based on mean AUCall/Dose: 4.13% and 3.72%

## CCCCC[C@@H](CC[C@@H]1[C@H]2Cc3cccc(OCC(=O)O)c3C[C@H]2C[C@H]1O)OC(=O)OC(C)C [Prodrug XVII, treprostinil side chain isopropyl carbonate]
[4]; [11]
  Test article-related (adverse) clinical observations: adverse clinical observations
[4]; [12]
  Test article-related (adverse) clinical observations: adverse clinical observations
[4]; [13]
  Mortality: found dead; also recorded: lethality
[5]; [16]
  Prodrug plasma concentrations: BLQ
[5]; [17]
  Prodrug plasma concentrations: BLQ
[5]; [18]
  Prodrug plasma concentrations (BQL): < 1.00 ng/mL
[5]; [19]
  Dose proportionality of mean treprostinil Cmax and AUC0-24hr: less than dose proportional manner
[5]; [14]
  Mean AUC0-12hr of treprostinil: 274 ng·h/mL
  Mean C0 of treprostinil: 1350 ng/mL
  Mean Cmax of treprostinil: 466 ng/mL
[5]; [21]
  Treprostinil quantifiable up to (time postdose): 24 h
